Assay results: patent US8802597B2, “Herbicidal pyrimidines” (E I du Pont de Nemours and Company, priority 2003, dated 2014)
Read-outs that look alike come from different tables or passages of the source.

Legend:
Assay in all cases: Test C pre/postemergence
Assay type in all cases: in vivo
[1] = test system: eastern black nightshade (Solanum ptycanthum); settings: Solanum, pre-emergence, Preemergence, read-out: Plant response rating, Nightshade
How it was run: (§1)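 Visual injury ratings, 0 (no effect) to 100 (complete control), made 12 to 14 days after treatment by comparison with untreated controls. Greenhouse plants received test chemical in a surfactant-containing non-phytotoxic solvent, either preemergence on planted seeds or postemergence at the 1- to 4-leaf stage.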

[2] = test system: johnsongrass (Sorghum halepense); settings: Sorghum halepense; for pest or weed control at 31 g/ha: 31 g ai/ha; for pest or weed control at 62 g/ha: 62 g ai/ha; for pest or weed control at 125 g/ha: 125 g ai/ha; for pest or weed control at 250 g/ha: 250 g ai/ha
How it was run: as §1

kochia (Kochia scoparia) = settings: Bassia scoparia; for pest or weed control at 31 g/ha: 31 g ai/ha; for pest or weed control at 62 g/ha: 62 g ai/ha; for pest or weed control at 125 g/ha: 125 g ai/ha; for pest or weed control at 250 g/ha: 250 g ai/ha
How it was run: as §1

[3] = test system: morningglory (Ipomoea coccinea); settings: Ipomoea; for pest or weed control at 31 g/ha: 31 g ai/ha; for pest or weed control at 62 g/ha: 62 g ai/ha; for pest or weed control at 125 g/ha: 125 g ai/ha; for pest or weed control at 250 g/ha: 250 g ai/ha
How it was run: as §1

[4] = test system: pigweed (Amaranthus retroflexus); settings: Amaranthus retroflexus; for pest or weed control at 31 g/ha: 31 g ai/ha; for pest or weed control at 62 g/ha: 62 g ai/ha; for pest or weed control at 125 g/ha: 125 g ai/ha; for pest or weed control at 250 g/ha: 250 g ai/ha
How it was run: as §1

[5] = test system: woolly cupgrass (Eriochloa villosa); settings: Eriochloa villosa; for pest or weed control at 31 g/ha: 31 g ai/ha; for pest or weed control at 62 g/ha: 62 g ai/ha; for pest or weed control at 125 g/ha: 125 g ai/ha; for pest or weed control at 250 g/ha: 250 g ai/ha
How it was run: as §1

[6] = post-emergence, Postemergence, scale 0 to 100 (0 no effect, 100 complete control), read-out: Johnsongrass plant response rating
[7] = pre-emergence, Preemergence, scale 0 to 100, 0 no effect, 100 complete control, read-out: Plant response rating, Johnsongrass
[8] = pre-emergence, Preemergence, scale 0 to 100, read-out: Plant response rating, Johnsongrass
[9] = post-emergence, Postemergence, scale 0 to 100 (0 no effect, 100 complete control), read-out: Kochia plant response rating
[10] = pre-emergence, Preemergence, scale 0 to 100, 0 no effect, 100 complete control, read-out: Plant response rating, Kochia
[11] = pre-emergence, Preemergence, scale 0 to 100, read-out: Plant response rating, Kochia
[12] = post-emergence, Postemergence, scale 0 to 100 (0 no effect, 100 complete control), read-out: Morningglory plant response rating
[13] = pre-emergence, Preemergence, scale 0 to 100, 0 no effect, 100 complete control, read-out: Plant response rating, Morningglory
[14] = pre-emergence, Preemergence, scale 0 to 100, read-out: Plant response rating, Morningglory
[15] = post-emergence, Postemergence, scale 0 to 100 (0 no effect, 100 complete control), read-out: Pigweed plant response rating
[16] = pre-emergence, Preemergence, scale 0 to 100, 0 no effect, 100 complete control, read-out: Plant response rating, Pigweed
[17] = pre-emergence, Preemergence, scale 0 to 100, read-out: Plant response rating, Pigweed
[18] = post-emergence, Postemergence, scale 0 to 100 (0 no effect, 100 complete control), read-out: Cupgrass, Woolly plant response rating
[19] = pre-emergence, Preemergence, scale 0 to 100, 0 no effect, 100 complete control, read-out: Plant response rating, Cupgrass, Woolly
[20] = pre-emergence, Preemergence, scale 0 to 100, read-out: Plant response rating, Cupgrass, Woolly

For `CCOC(=O)c1nc(C2CC2)nc(N)c1F` [Compound 30], the pest or weed control at 31 g/ha ([1]; 31 g ai/ha, scale 0 to 100, 0 no effect, 100 complete control) was 50%, the pest or weed control at 62 g/ha ([1]; 62 g ai/ha, scale 0 to 100, 0 no effect, 100 complete control) was 80% and the pest or weed control at 125 g/ha ([1]; 125 g ai/ha, scale 0 to 100) was 100%. It also gave a pest or weed control at 250 g/ha ([1]; 250 g ai/ha, scale 0 to 100) of 100%, a pest or weed control at 31 g/ha ([2]; post-emergence, Postemergence, read-out: Plant response rating (scale of 0 to 100), Johnsongrass) of 0% and a pest or weed control at 62 g/ha [2, 6] of 5%. The pest or weed control at 125 g/ha [2, 6] was 10%, the pest or weed control at 250 g/ha ([2]; post-emergence, Postemergence, scale 0 to 100, read-out: Plant response rating, Johnsongrass) was 40% and the pest or weed control at 31 g/ha [2, 7] was 0%. The pest or weed control at 62 g/ha [2, 7] was 0%, the pest or weed control at 125 g/ha [2, 8] was 5% and the pest or weed control at 250 g/ha [2, 8] was 5%. The pest or weed control at 31 g/ha (kochia (Kochia scoparia); post-emergence, Postemergence, read-out: Plant response rating (scale of 0 to 100), Kochia) was 55%, the pest or weed control at 62 g/ha (kochia (Kochia scoparia); [9]) was 90% and the pest or weed control at 125 g/ha (kochia (Kochia scoparia); [9]) was 100%. The pest or weed control at 250 g/ha (kochia (Kochia scoparia); post-emergence, Postemergence, scale 0 to 100, read-out: Plant response rating, Kochia) was 100%, the pest or weed control at 31 g/ha (kochia (Kochia scoparia); [10]) was 50% and the pest or weed control at 62 g/ha (kochia (Kochia scoparia); [10]) was 70%. The pest or weed control at 125 g/ha (kochia (Kochia scoparia); [11]) was 70%, the pest or weed control at 250 g/ha (kochia (Kochia scoparia); [11]) was 90% and the pest or weed control at 31 g/ha ([3]; post-emergence, Postemergence, read-out: Plant response rating (scale of 0 to 100), Morningglory) was 90%. For the same molecule, the pest or weed control at 62 g/ha [3, 12] was 90%, the pest or weed control at 125 g/ha [3, 12] was 95% and the pest or weed control at 250 g/ha ([3]; post-emergence, Postemergence, scale 0 to 100, read-out: Plant response rating, Morningglory) was 95%. For the same molecule, the pest or weed control at 31 g/ha [3, 13] was 0%, the pest or weed control at 62 g/ha [3, 13] was 85% and the pest or weed control at 125 g/ha [3, 14] was 90%. The pest or weed control at 250 g/ha [3, 14] was 100%, the pest or weed control at 31 g/ha ([4]; post-emergence, Postemergence, read-out: Plant response rating (scale of 0 to 100), Pigweed) was 60% and the pest or weed control at 62 g/ha [4, 15] was 70%. It also gave a pest or weed control at 125 g/ha [4, 15] of 80%, a pest or weed control at 250 g/ha ([4]; post-emergence, Postemergence, scale 0 to 100, read-out: Plant response rating, Pigweed) of 90% and a pest or weed control at 31 g/ha [4, 16] of 0%. The pest or weed control at 62 g/ha [4, 16] was 30%, the pest or weed control at 125 g/ha [4, 17] was 80% and the pest or weed control at 250 g/ha [4, 17] was 90%. For the same molecule, the pest or weed control at 31 g/ha ([5]; post-emergence, Postemergence, read-out: Plant response rating (scale of 0 to 100), Cupgrass, Woolly) was 0%, the pest or weed control at 62 g/ha [5, 18] was 0% and the pest or weed control at 125 g/ha [5, 18] was 0%. For the same molecule, the pest or weed control at 250 g/ha ([5]; post-emergence, Postemergence, scale 0 to 100, read-out: Plant response rating, Cupgrass, Woolly) was 40%, the pest or weed control at 31 g/ha [5, 19] was 0% and the pest or weed control at 62 g/ha [5, 19] was 5%. The pest or weed control at 125 g/ha [5, 20] was 45% and the pest or weed control at 250 g/ha [5, 20] was 50%.
